The assay deals with local fat. Kind of assay: Clinical trials on hyaluronidase unit dose (efficacy threshold, diffusion range). Particulars: per injection. Type of assay: in vivo. How it is done:
It was ascertained from clinical trials that at the hyaluronidase unit dose of 300 IU to 600 IU, it was possible to ensure adequate fat removing effect while minimizing side effects. It was also shown in clinical trials that at the above dose range, if the injectable composition is administered in a volume of 1 cc containing 300 IU of hyaluronidase, the diameter of the diffusion range is about 1 cm. Thus, with the hyaluronidase dose set at 300 IU to 600 IU, by injecting the composition at a volume of 0.5 to 2 cc depending on the hyaluronidase dose and with an interval of 0.5 to 1.5 cm between injection points, injection at narrow intervals is possible, and consequently, lipolysis occurs evenly. Furthermore, a lifting effect occurs concomitantly where skin resilience is improved by the promotion of collagen production through the stimulation of skin by the injection needle. […] Thus, by administering an injectable composition of the present disclosure having the above compositional ranges, the side effects from drug use are minimized while fat removal over a wide area can be carried out using minimal volumes. It was shown in clinical trials that at a hyaluronidase dose of 300 IU, the diameter of the diffusion range for the injectable composition is about 1 cm. […]

The text below walks through data of patent US20200330409A1, “INJECTABLE COMPOSITION COMPRISING HYALURONIDASE FOR REMOVING LOCAL FAT” (priority 2019, published 2020).

Take hyaluronidase: the “minimum amount of hyaluronidase exhibiting efficacy” value is listed as 300 IU.
